# Experiments:
# Conditions in all cases: 72 h
# Calu-3 [1] = assay: relative viability EC50 (midpoint between 100% and the lowest measured viability); higher = less toxic
# HepG2 [2] = assay: as above
# U2OS [3] = assay: as above
# Caco-2 [4] = assay: as above
# Calu-3 [5] = assay: drug sensitivity score (DSS) for viability; higher = more toxic; extreme values may be limits of the assay
# HepG2 [6] = assay: as above
# U2OS [7] = assay: as above
# Caco-2 [8] = assay: as above
# Calu-3 [9] = assay: cell viability relative to DMSO; higher = less toxic
# HepG2 [10] = assay: as above
# U2OS [11] = assay: as above
# Caco-2 [12] = assay: as above
# Vero E6 [13] = assay: relative viability EC50 (midpoint between 100% and the lowest measured viability); higher = less toxic
# Vero E6 [14] = assay: drug sensitivity score (DSS) for viability; higher = more toxic; extreme values may be limits of the assay
# Vero E6 [15] = assay: cell viability relative to DMSO; higher = less toxic
Structure (SMILES),relative viability EC50 (Calu-3 [1]),relative viability EC50 (HepG2 [2]),relative viability EC50 (U2OS [3]),relative viability EC50 (Caco-2 [4]),drug sensitivity score (Calu-3 [5]),drug sensitivity score (HepG2 [6]),drug sensitivity score (U2OS [7]),drug sensitivity score (Caco-2 [8]),cell viability (Calu-3 [9]; 1 nM),cell viability (Calu-3 [9]; 10 nM),cell viability (Calu-3 [9]; 100 nM),cell viability (Calu-3 [9]; 1000 nM),cell viability (Calu-3 [9]; 10000 nM),cell viability (HepG2 [10]; 1 nM),cell viability (HepG2 [10]; 10 nM),cell viability (HepG2 [10]; 100 nM),cell viability (HepG2 [10]; 1000 nM),cell viability (HepG2 [10]; 10000 nM),cell viability (U2OS [11]; 1 nM),cell viability (U2OS [11]; 10 nM),cell viability (U2OS [11]; 100 nM),cell viability (U2OS [11]; 1000 nM),cell viability (U2OS [11]; 10000 nM),cell viability (Caco-2 [12]; 1 nM),cell viability (Caco-2 [12]; 10 nM),cell viability (Caco-2 [12]; 100 nM),cell viability (Caco-2 [12]; 1000 nM),cell viability (Caco-2 [12]; 10000 nM),relative viability EC50 (Vero E6 [13]),drug sensitivity score (Vero E6 [14]),cell viability (Vero E6 [15]; 1 nM),cell viability (Vero E6 [15]; 10 nM),cell viability (Vero E6 [15]; 100 nM),cell viability (Vero E6 [15]; 1000 nM),cell viability (Vero E6 [15]; 10000 nM)
CC[C@H]1OC(=O)[C@H](C)[C@@H](O[C@H]2C[C@@](C)(OC)[C@@H](O)[C@H](C)O2)[C@H](C)[C@@H](O[C@@H]2O[C@H](C)C[C@H](N(C)C)[C@H]2O)[C@](C)(OC)C[C@@H](C)C(=O)[C@H](C)[C@@H](O)[C@]1(C)O [clarithromycin],> 10 µM,> 10 µM,> 10 µM,> 10 µM,0,0,0,0,93.1%,107%,94.5%,104%,99.5%,104%,104%,108%,98%,99.8%,99.3%,102%,102%,96.1%,98.7%,102%,103%,112%,100%,90.7%,,,,,,,
Cc1cn(C[C@H](N)C(=O)O)c(=O)n(Cc2ccsc2C(=O)O)c1=O [UBP-310],,> 10 µM,> 10 µM,> 10 µM,,0,0,0,,,,,,96.6%,91.3%,94.6%,91.2%,88.1%,98.8%,97.3%,98.5%,97%,98.5%,99.7%,93.6%,101%,93%,99.5%,> 10 µM,0,97.3%,101%,98.3%,97.6%,97.3%
O=C(O)/C=C/c1ccc(O)cc1 [naringeninic-acid],> 10 µM,> 10 µM,> 10 µM,> 10 µM,0,0,0,0.1,93.2%,109%,100%,109%,108%,92%,108%,97.5%,96.8%,94%,102%,103%,98.9%,106%,101%,88%,91.5%,86.1%,104%,85.4%,,,,,,,
COCCOC(=O)C1=C(C)NC(C)=C(C(=O)OC(C)C)C1c1cccc([N+](=O)[O-])c1 (configuration not stated) [nimodipine],> 10 µM,,> 10 µM,> 10 µM,0,,0,0,101%,98.2%,104%,96.7%,97.8%,,,,,,97.2%,97.8%,104%,97.8%,95.9%,98.4%,93.4%,87.8%,98.1%,91.5%,> 10 µM,0,98.6%,100%,103%,102%,88.1%
COc1ccc(CNC(=O)/C=C/c2ccc3[nH]cc(CCN(C)C)c3c2)cc1,,> 10 µM,> 10 µM,> 10 µM,,0,0,0,,,,,,107%,90.6%,93.5%,94%,96.8%,102%,97.4%,98.1%,98.9%,99.3%,106%,95%,93.8%,96.6%,98.7%,> 10 µM,0,98.5%,98%,101%,101%,102%
CC(C)[C@H](CO)Nc1nc(Nc2cc(N)cc(Cl)c2)c2ncn(C(C)C)c2n1 [aminopurvalanol-a],3.07 µM,3.54 µM,2.75 µM,3.2 µM,2.9,3.2,4.1,3.3,98.4%,87.7%,101%,99.3%,47%,101%,99.3%,93.8%,105%,34.6%,94%,99.7%,101%,96.5%,34%,101%,97%,98.5%,100%,38.2%,,3.2,99.7%,102%,96.9%,95.3%,53.3%
CNC(=O)c1c(I)c(NC(C)=O)c(I)c(C(=O)O)c1I [iothalamic-acid-d3],> 10 µM,> 10 µM,> 10 µM,> 10 µM,0.1,0,0,0,94.6%,99%,80.3%,102%,85.2%,107%,101%,107%,94.9%,100%,99.6%,109%,104%,106%,103%,91.8%,91.5%,87.6%,94.5%,102%,,,,,,,

# Reference: the supplement of paper PMC13380429
